One data set deals with T1, CYP2B1 (Rattus norvegicus, UniProt P00176).
T1 construct: consisting of pooled HLMs (0.5 mg/ml) or RLMs (1 mg/ml) and an NADPH-regenerating system; from tissue; host or cells: rat liver microsomes prepared in house
T1 sequence (P00176 1-491): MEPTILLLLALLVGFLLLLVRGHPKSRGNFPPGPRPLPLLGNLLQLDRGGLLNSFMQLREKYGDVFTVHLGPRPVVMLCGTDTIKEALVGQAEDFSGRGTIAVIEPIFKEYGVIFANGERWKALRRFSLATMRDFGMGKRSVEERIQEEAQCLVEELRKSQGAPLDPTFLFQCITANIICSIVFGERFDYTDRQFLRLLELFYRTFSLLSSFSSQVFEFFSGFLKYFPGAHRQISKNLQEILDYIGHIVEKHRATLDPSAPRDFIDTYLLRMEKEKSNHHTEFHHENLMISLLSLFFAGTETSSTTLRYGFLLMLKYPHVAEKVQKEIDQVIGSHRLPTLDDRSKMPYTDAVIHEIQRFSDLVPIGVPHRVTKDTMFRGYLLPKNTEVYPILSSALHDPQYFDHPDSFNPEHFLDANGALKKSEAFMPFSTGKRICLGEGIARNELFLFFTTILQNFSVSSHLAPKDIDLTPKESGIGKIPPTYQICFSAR
Type of data set: in vitro ADME. The procedure: (§1) In this study, the rats were fasted overnight and killed by cervical dislocation before removal of the liver. The liver was excised, rinsed with ice-cold saline (0.9% NaCl w/v), weighed and homogenized in a […] Tris/KCl buffer (pH 7.4). Subsequently, the homogenate was centrifuged at 10,000 × g at 4 °C for 30 min. The supernatant was then centrifuged at 105,000 × g at 4 °C for 60 min. The pellet was reconstituted with […] Tris/KCl buffer (pH 7.4) and stored at −150 °C until use. The protein concentration of the liver microsomes was determined by a protein quantitative assay using bicinchoninic acid[22].
(§2) Microsomal incubation was carried out at 37 °C in a mixture of 200 μl in 0.05 M Tris/HCl buffer (pH 7.4) consisting of pooled HLMs (0.5 mg/ml) or RLMs (1 mg/ml) and an NADPH-regenerating system including MgCl2 (5 mM), G6P (10 mM), G6PDH (0.4 U/ml) and NADP (1 mM). Substrates were added into the incubation mixture and obtained the final concentrations (10 μM phenacetin for CYP1A2, 20 μM bupropion for CYP2B1/6, 20 μM tolbutamide for CYP2C9/11, 5 μM dextromethorphan for CYP2D1/6, 20 μM chlorzoxazone for CYP2E1 and 10 μM midazolam for CYP3A2/4), which were close to Km respectively. The proportion of organic solvent was not higher than 1% (v/v) in the incubation mixture. After pre-incubation for 5 min, the reaction was initiated by addition of NADP. Incubations were performed for 20 min, stopped by adding 200 μl ice-cold acetonitrile. And then 20 μl internal standard solution was added (3-acetamidophenol 2 μg/ml, chlorpropamide 2 μg/ml and mebendazole 2 μg/ml). The solution was mixed thoroughly for 3 min and centrifuged for 10 min at 16,000 × g at 4 °C. The supernatant (60 μl) was transferred to autosampler vials, and 2 μl was injected into LC-MS/MS system.
(§3) The IC50 (concentration of inhibitor to cause 50% inhibition of original enzyme activity) values were determined with the same incubation condition above. The specific concentrations of plumbagin were ranged from 0.1 μM to 50 μM. The IC50 values were calculated by plotting relative activities over the logarithm of plumbagin concentrations using GraphPad Prism 5.0 (GraphPad software Inc., CA, USA).
(§4) Cocktail probe substrates were then added and incubated for 20 min. Reactions were stopped with 200 μl ice-cold acetonitrile. The samples were treated according to the microsomal incubation method and then injected into LC-MS/MS for analysis.
(§5) Kinetic studies were performed for determining the types of inhibition on CYP by plumbagin. Pooled HLMs (0.5 mg/ml) or RLMs (1 mg/ml) with plumbagin (1 μM, 2 μM, 5 μM and 10 μM) were incubated in 0.05 M Tris/HCl buffer (pH 7.4) for 20 min at 37 °C. A series of concentrations for cocktail probe substrates were used: 2.5–20 μM phenacetin for CYP1A2; 5–40 μM bupropion for CYP2B1/6; 5–40 μM tolbutamide for CYP2C9/11; 1.25–10 μM dextromethorphan for CYP2D1/6; 5–40 μM chlorzoxazone for CYP2E1; 2.5–80 μM midazolam for CYP3A2; and 0.625–5 μM midazolam for CYP3A4. Enzyme kinetics as well as statistical analysis were performed using GraphPad Prism 5.0.
(§6) All data were presented as mean ± SD. The IC50 values were fitted by non-linear regression analysis using GraphPad Prism 5.0. The kinetic parameters were obtained by fitting velocity data to kinetic models (Michaelis-Menten) using GraphPad Prism 5.0. The Lineweaver-Burk Plot (the reciprocal of reaction velocities versus the reciprocal of substrates concentrations) was used to determine the quality of fit to a specific inhibition model. The inhibition constant (Ki) was obtained by a secondary plot using the slopes of the primary Lineweaver-Burk Plot (Km/Vmax versus inhibitor concentrations). αKi was obtained from a secondary plot using the y-intercepts of the Lineweaver-Burk plot (1/Vmax versus inhibitor concentrations). All results were analyzed in quadruplicate. One-way analysis of variance was used to estimate the significance of differences. […]

The target in another data set is T2, CYP3A2 (Rattus norvegicus, UniProt P05183).
T2 construct: consisting of pooled HLMs (0.5 mg/ml) or RLMs (1 mg/ml) and an NADPH-regenerating system; from tissue; host or cells: rat liver microsomes prepared in house
T2 sequence (P05183 1-504): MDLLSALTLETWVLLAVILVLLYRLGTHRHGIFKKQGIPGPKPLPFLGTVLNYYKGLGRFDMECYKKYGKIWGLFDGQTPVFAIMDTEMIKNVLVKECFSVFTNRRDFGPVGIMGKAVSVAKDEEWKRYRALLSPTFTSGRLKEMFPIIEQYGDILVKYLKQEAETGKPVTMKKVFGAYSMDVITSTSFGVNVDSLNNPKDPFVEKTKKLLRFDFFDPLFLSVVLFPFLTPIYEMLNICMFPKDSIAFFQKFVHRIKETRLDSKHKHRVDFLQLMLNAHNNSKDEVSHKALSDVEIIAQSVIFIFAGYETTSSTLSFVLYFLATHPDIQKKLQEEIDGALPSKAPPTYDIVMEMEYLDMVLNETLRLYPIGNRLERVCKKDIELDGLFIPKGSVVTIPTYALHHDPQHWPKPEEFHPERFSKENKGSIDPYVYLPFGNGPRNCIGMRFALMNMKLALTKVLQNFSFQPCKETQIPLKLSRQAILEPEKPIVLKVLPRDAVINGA
Type of data set: in vitro ADME. Here is the method:
as §1, §2, §3, §4, §5, §6

Consider 1 molecule from paper PMC4916434, “Evaluation of the inhibition potential of plumbagin against cytochrome P450 using LC-MS/MS and cocktail approach” (Scientific Reports, 2016).

The IC50 is the concentration needed to halve the response being measured. The low end stands for greater potency, the high end for weaker potency. A word on the Ki: it is a measure of affinity in units of concentration, obtained from inhibition or displacement. Low values mean a stronger hold on the target, high ones a looser hold on the target.

On to `CC1=CC(=O)c2c(O)cccc2C1=O` [plumbagin, 5-hydroxy-2-methyl-1,4-naphthoquinone], for which, on CYP2B1, the IC50 worked out at 5.86 µM, the Ki is 9.93 µM and the Type of inhibition result is reported as “competitive”. Further, the IC50 against CYP3A2 was found to be 8.47 µM.
